# Results filed as inconclusive are left out.
# System: Clone20 osteoblast Shn3 3'UTR firefly luciferase, 24 h
# Experiment: Schnurri-3 3'UTR-luciferase signal suppressors – cell-based, Clone20 osteoblasts, luminescence, dry powder, set 2, dose response (AID 743417)
row,Compound,AC50 [µM]
1,O=C(Nc1ccc(N2CCOCC2)c(Cl)c1)c1ccc([N+](=O)[O-])o1,6.23
2,COc1ccccc1NC(=O)Cn1c(C)cc(=O)c2cccc(OC)c21,3.16
3,Cc1cc(C(=O)CSc2nc(N)cc(=O)[nH]2)c(C)n1-c1cccc(F)c1,1.66
4,COc1ccc(-c2csc(NC(=O)C3CCN(c4ncnc5sc(C)c(C)c45)CC3)n2)cc1OC,1.42
5,COc1cc2ccnc(Cc3cccc(OC)c3OC)c2cc1OC,4.64
6,COc1cccc(N2CCN(c3ncnc4c3[nH]c3ccc(F)cc34)CC2C)c1 (stereo unspecified),1.31
7,CCn1c(/C=C/c2ccc([N+](=O)[O-])o2)nc2ccccc2c1=O,4.51
8,Cc1ccccc1C(=O)N1CCN(c2ccc(NC(=O)c3ccc4c(c3)OCCO4)cc2)CC1,2.17
9,COCCn1c(CN2CCN(c3cccc(Cl)c3)CC2)nc2c1c(=O)n(C)c(=O)n2C,10.7
10,NC1=NC[C@H](c2ccccc2)N1CCCCC1CCCCC1,4.23
11,O=C(CC(O)(C(F)(F)F)C(F)(F)F)Nc1ccc(Cl)c(Cl)c1,4.97
12,Clc1cc2cccnc2c2ncccc12,4.06
13,CNc1ccccc1C(C)(C)c1cc(-c2cccc(Br)c2)no1,2
14,N#Cc1ccc(NC(=O)Nc2ccc(Oc3ccc(NC(=O)Nc4ccc(C#N)cc4)cc3)cc2)cc1,2.68
15,Cc1cc(NC(=O)CCN2CCN(C/C=C/c3ccccc3)CC2)ccc1Br,10.2
16,OC(c1cc(-c2ccc(C(F)(F)F)cc2)nc(C(F)(F)F)c1)C1CCCCN1 (stereo unspecified),4.73
17,COc1ccc(CCNc2ncnc3c2oc2ccccc23)cc1OC,0.524
18,O=C(Nc1cccc(Cl)c1Cl)C1CC(=O)N(c2ccc(Br)cc2)C1 (stereo unspecified),8.23
19,O=C(Nc1nc(-c2ccccn2)cs1)c1ccc(Cl)s1,0.817
20,Fc1ccc(NC(=S)N2CCCN(c3ccc(C(F)(F)F)cn3)CC2)c(F)c1,3.71
21,CC(=O)NC(c1ccc(C)cc1)c1cc(Cl)c2cccnc2c1O (stereo unspecified),2.12
22,CCC(NC(=O)Nc1nnc(C(F)(F)F)s1)(C(F)(F)F)C(F)(F)F,4.15

row,Compound,AC50 [µM]
1,O=C(c1ccccc1)N1CCN(c2ncnc3sc4c(c23)CCC4)CC1,4.14
2,CCC(C)[C@H]1CNC(=S)N1CCc1cc(C(F)(F)F)cc(C(F)(F)F)c1 (stereo partly specified),21.6
3,COc1ccccc1NC(=O)c1nc(S(=O)(=O)Cc2ccccc2)ncc1Cl,0.492
4,CCOC(=O)N1CCC(NC(=O)C2CCCN(Cc3nc(-c4cccc(Cl)c4)oc3C)C2)CC1 (stereo unspecified),9.5
5,COc1ccccc1N(C)S(=O)(=O)c1ccc(C(=O)Nc2cc(F)ccc2C)cc1,13.8
6,COc1cccc(-c2cc(N3CCN(C(=O)c4ccoc4)CC3)n3nc(-c4cccc(Cl)c4)cc3n2)c1,6.22
7,CCCCC(=O)NC(c1ccccc1OC)c1ccc2cccnc2c1O (stereo unspecified),1.19
8,CN(c1ccccc1)S(=O)(=O)c1cccc(NC(=O)CSc2nncs2)c1,1.44
9,CCOC(=O)c1c(CSc2ccc(CC)cc2)oc2ccc(O)c(CN(C)C)c12,3.05
10,CN(C)c1nc(-c2ccccn2)nnc1-c1ccccc1,3.3
11,C=C1C(=O)[C@]23C[C@H]1CCC2[C@]1(C)CCC[C@@](C)(C(=O)O)C1C[C@@H]3O (stereo partly specified),1.2
12,Cc1ccccc1OCC(O)Cn1c(=N)n(Cc2ccccc2)c2ccccc21 (stereo unspecified),2.25
13,CCN(CC)CCNC(=O)CSc1c2c(nc3cc(Cl)ccc13)CCCC2,14.9
14,COc1cccc(C(NC(C)=O)c2ccc3cccnc3c2O)c1 (stereo unspecified),1.39
15,O=C(CN1C(=O)c2ccccc2S1(=O)=O)c1ccc(Cl)cc1Cl,3.53
16,CC(=O)N1c2ccc(S(=O)(=O)N3CCC(C(=O)Nc4cccc(F)c4)CC3)cc2CC1C (stereo unspecified),4.54
17,Cc1cccc2sc(NNC(=O)c3ccc(S(=O)(=O)N4CC(C)CC(C)C4)cc3)nc12 (stereo unspecified),2.57
18,CC(C)Oc1ccc(S(=O)(=O)N2CCCCC2)cc1NC(=O)CN1CCCC1c1cccs1 (stereo unspecified),7.88
19,COc1ccc(-c2nsc3c(N4CCCCC4C)ncnc23)cc1 (stereo unspecified),< 0.26
20,Cc1c(CCCl)c(Cl)n2c(nc3ccccc32)c1C#N,0.912
21,CC(=O)NC(c1ccc2ccccc2c1)c1ccc2cccnc2c1O (stereo unspecified),0.422
22,COc1ccc(C2=NS(=O)(=O)N(C)C(C(=O)N3CCc4ccccc4C3)=C2)cc1OC,4.99

row,Compound,AC50 [µM]
1,CCn1cc(C(=O)NCc2ccco2)c(=O)c2cc(S(=O)(=O)N3CC(C)CC(C)C3)ccc21 (stereo unspecified),0.778
2,CC(=O)c1cn(Cc2ccccc2F)c2ccccc12,2.96
3,COc1ccc(-c2nc(-c3ccc(NC(=O)c4ccncc4)cc3)no2)cc1OC,2.36
4,CCCCOC(=O)c1[nH]c2c(c1C)C(=O)CC(c1cc(OC)c(OC)c(OC)c1)C2 (stereo unspecified),1.35
5,CCn1c(N2CCN(S(=O)(=O)c3ccc(Cl)cc3)CC2)nc2ccccc21,9.14
6,Cn1c(=O)[nH]c(=O)c2c1nc([N+](=O)[O-])n2Cc1ccccc1,1.9
7,O=C(NNC(=O)c1cccc(S(=O)(=O)N2CCc3ccccc32)c1)c1ccccc1,1.52
8,Cc1cccc(Oc2cc(NC(=O)c3ccccc3)cc([N+](=O)[O-])c2)c1,3.09
9,CCOC(=O)c1sc(NC(=O)CCCn2nc([N+](=O)[O-])c(Cl)c2C)c(C(=O)OCC)c1C,6.34
10,COc1cnc(-c2ccccn2)nc1N(C)c1ccccc1,1.83
11,COC(=O)c1cn(NC(=O)c2cc([N+](=O)[O-])ccc2F)c(=O)c2ccccc12,2.85
12,COC(=O)c1c(-c2cccc3ccccc23)csc1NC(=O)Cc1ccc(OC)c(OC)c1,5.43
13,COc1cccc(N2CCN(c3ncnc4c3cnn4-c3ccc(C)cc3C)CC2)c1,4.65
14,C=C1C(=O)[C@@]23[C@H](O)C[C@@H]4C(C)(C)CC[C@H](O)[C@]4(C)[C@@H]2C[C@H](O)[C@@H]1[C@H]3O,2.95
15,CC[C@@H](C)[C@H](CNC)NC[C@@H](Cc1cccc2ccccc12)NCCc1cccc(C(F)(F)F)c1,8.08
16,Cc1ccc(F)cc1CNC(=O)c1cc(COc2ccc3ncccc3c2)on1,4.88
17,CCc1c(C)nc2ncnn2c1NCCc1ccc(Cl)cc1,2.17
18,COc1ccc(S(=O)(=O)N2CCN(C(=O)c3cc(-c4ccc(Br)cc4)n[nH]3)CC2)cc1OC,4.55
19,Cc1ccc2nnn(Cc3cccc(C(C)(C)C)c3O)c2c1,5.44
20,CCN1CCN(Cc2ccc(NC(=O)c3ccc(C)c(NC(=O)C(=O)c4c[nH]c5ccccc45)c3)cc2C(F)(F)F)CC1,7.49
21,Cc1cc([N+](=O)[O-])ccc1-c1ccc(C2Nc3ccccc3C(=O)N2O)o1 (stereo unspecified),3.32
22,O=C1CCCN2N=C(SCC(=O)Nc3cccc(C(F)(F)F)c3)SC2=N1,4.37

row,Compound,AC50 [µM]
1,CC(C)Cn1c(N)c(C(=O)COC(=O)C2Cc3ccccc3CN2S(C)(=O)=O)c(=O)n(C)c1=O (stereo unspecified),0.72
2,COc1ccc(C(=O)Cn2c(C(=O)/C=C/c3ccccc3)nc3ccccc32)cc1,4.47
3,C=CS(=O)(=O)c1sc(Cl)c(N2CCOCC2)c1[N+](=O)[O-],1.31
4,Cc1cc(Sc2ncnc(N)c2[N+](=O)[O-])ncn1,5.7
5,Nc1nc(N)c2cc(CNc3ccc(Cl)c(Cl)c3)ccc2n1,0.956
6,COc1ccc(-n2nnnc2-c2cnc(N3CCCC3)nc2C(F)(F)F)cc1,4.75
7,O=C(NCCc1ccccc1)c1ccc2c(c1)OCCO2,2.16
8,COc1ccc(CNC(=O)C(c2ccc(C)cc2)N(Cc2cccs2)C(=O)c2ccc3c(c2)OCCO3)cc1 (stereo unspecified),8.1
9,CC(C)(O)C#Cc1ccc([C@@H]2C[C@H]3CN(c4ccccc4)C(=O)[C@]34CCCN24)s1,4.93
10,CC(=O)c1ccc(N2CCN(S(=O)(=O)c3ccc(-c4cnc(C5CC5)o4)cc3)CC2)cc1,5.95
11,CCOC(=O)c1c(C)[nH]c2c1-c1ccccc1C(=O)C2=O,0.496
12,CCOc1cc(N2CCOCC2)c(OCC)cc1NC(=O)COc1cccc2cccnc12,2.41
13,Cc1cc(C)nc(SCC(=O)Nc2ccnc3ccccc23)n1,0.462
14,CC1(c2ccc3ccccc3c2)NC(=O)N(CC(=O)N2CCN(Cc3ccc(C#N)cc3)CC2)C1=O (stereo unspecified),0.416
15,CCCCN(c1nc2ccccc2nc1Cl)S(=O)(=O)c1ccc(C)cc1,7.22
16,Nc1nc(Cl)cc(N2CCC(c3cc(-c4ccc(Cl)cc4Cl)n[nH]3)CC2)n1,4.94
17,Cc1cccc(NC(=O)Cn2cc(C(=O)C3CC3)c3ccccc32)c1C,2.39
18,Oc1c(C(c2ccccc2Cl)N2CCCC2)ccc2cccnc12 (stereo unspecified),5.77
19,CC1CCC/C=C/C(=O)c2c(O)cc(O)cc2CC(=O)O1 (stereo unspecified),4.12
20,C#CCN(C[C@@H]1[C@@H](OC(=O)NCC2CCCCC2)[C@@H](OC(=O)NCC2CCCCC2)Cn2c(=O)ccc(=O)n21)S(=O)(=O)c1ccc(C)cc1,2.49
21,c1ccc(-c2noc(-c3ccc4ccccc4c3)n2)nc1,1.98
22,Cn1cc(S(=O)(=O)N2CCc3ccccc32)cc1C(=O)NC(C)(C)C,1.25

row,Compound,AC50 [µM]
1,C=C1C(=O)O[C@@H]2C[C@@H](C)[C@@H]3C=CC(=O)[C@@]3(C)[C@@H](O)[C@H]12,0.825
2,CN(C)c1ccc(/C=C/c2nc3ccccc3s2)cc1,0.494
3,CC(C)(C)C(=O)Nc1cc(S(=O)(=O)N2CCCCC2)ccc1N1CCCCC1,23.1
4,CC[C@H]1CN2CCc3cc(OC)c(OC)cc3C2C[C@@H]1C[C@H]1NCCc2cc(OC)c(OC)cc21 (stereo partly specified),< 0.26
5,CCCc1nnc(NC(=O)c2nc(S(=O)(=O)Cc3ccc(C)cc3)ncc2Cl)s1,0.538
6,O=C(C(=Cc1ccccc1)CN1CCCCC1)c1ccccc1,3.18
7,C=CCn1c(C)cc(C(=O)CN2C(=O)c3ccccc3S2(=O)=O)c1C,0.974
8,CCOC(=O)c1c(NC(=O)COc2cccc3c2CCN(C)C3=O)sc2c1CCC2,5.44
9,O=C(C1CCC(CNS(=O)(=O)c2cccs2)CC1)N1CCN(c2ccc(Cl)cc2)CC1 (stereo unspecified),1.61
10,Cc1ccc(C)c(S(=O)(=O)N2CCN(c3ncnc4sccc34)CC2)c1,0.631
11,O=C(c1ccc(S(=O)(=O)c2ccc(F)cc2)c([N+](=O)[O-])c1)N1CCCCCC1,2.38
12,COc1ccc(NC(=O)Cn2nnc(-c3ccccc3NS(=O)(=O)c3ccccc3)n2)cc1,0.485
13,COc1ccc(OCC(O)CNCCOc2ccccc2OC)c(C(C)(C)C)c1 (stereo unspecified),11.6
14,O=C1C=C(N2CCOCC2)c2ccccc2C1=O,7.16
15,Cc1cc(Nc2ccccc2)nc(NCc2ccccc2)n1,1.04
16,O=[N+]([O-])c1ccc2ncnc(N3CCN(Cc4ccc5c(c4)OCO5)CC3)c2c1,2.73
17,COc1ccc(C(NC(C)=O)c2cc(Cl)c3cccnc3c2O)cc1OC (stereo unspecified),3.45
18,CC(N)C(=O)NC1C2C(=C(O)CC(O)C2O)C(=O)OC1(C)C(Cl)Cl (stereo unspecified),1.85
